From patent publication US20240299401A1, “NOVEL REDOX-BASED THERAPEUTIC APPROACH FOR TREATMENT OF CANCER” (THE PENN STATE RESEARCH FOUNDATION, priority 2020, published 2024)
“Also recorded” adds a separate entry of the source. Like-named read-outs stand apart in the source and are kept apart here.

How the values were obtained:
A549 = assay: WST-1 cytotoxicity, A549; format: cell-based, human; conditions: Homo sapiens
Procedure: (§1) Two different cytotoxicity/proliferation kit was used in this study i.e., WST-1 proliferation assay kit (Roche, Indianapolis, IN, USA; Cat #28620000) and Cell-titer Glo-luminescent cell viability assay (Promega, WI, USA; Cat #0000348721). Majority of the cell proliferation/cytotoxicity experiments were performed with WST-1 assay. Briefly, cells were seeded at the indicated density for 24 h in 96 well plate, media was replaced, and subsequently treated with the test compounds at different doses. […] Cell titer Glo-assay was additionally performed in certain cases to validate the results from WST-1 assay as outlined above following manufacturer's instructions and luminescence was measured using a FLx100 Luminometer (CLARIOSTAR®, Ortenbery, Germany). […] Other proliferation/cytotoxicity assays were also carried out i.e., Quant™-iT PicoGreen ds DNA assay kit (Thermo Scientific, Rockwood, TN, USA, P7589) following manufacturer's instructions, Trypan blue (Sigma, Ayrshire, UK, T8154) and acid phosphatase assay for validation of cytotoxicity/proliferation data from other assays.

H661 = assay: WST-1 cytotoxicity, H661; format: cell-based, human; conditions: Homo sapiens
Procedure: as §1

H1299 = assay: WST-1 cytotoxicity, H1299; format: cell-based, human; conditions: Homo sapiens
Procedure: as §1

NB4 = assay: WST-1 cytotoxicity, NB4; format: cell-based, human; conditions: Homo sapiens
Procedure: as §1

HL60 = assay: WST-1 cytotoxicity and synergy analysis, HL60; format: cell-based, human; conditions: Homo sapiens
Procedure: as §1

MCF-7 = assay: WST-1 cytotoxicity, MCF-7; format: cell-based, human; conditions: Homo sapiens
Procedure: as §1

[1] = system: 23 different human cell lines of multiple cancer origins; assay: Cytotoxicity across the cancer cell line panel (summary statements); format: cell-based; conditions: 5 μM; cancer cell lines of Table 2
Procedure: as §1

H1299 cells = assay: Cellular total selenium uptake by ICP-MS; format: cell-based, human; conditions: 6 h
Procedure: H1299 cells were treated with the indicated concentrations of different selenium compounds either alone or in combinations for 6 h. At the end of the treatment, cells were washed 3-times with cold PBS and collected. Cell pellets were digested and the total selenium concentration was measured using ICP-MS. […] Increased selenium delivery to the cells by diphenyl diselenide warrants increased cytotoxicity in cancer cells, as outlined before.

[2] = system: extracellular reduced thiols; assay: Extracellular thiols measurement (DTDP method); format: cell-based, human
Procedure: Cell culture media was collected at specified time points after incubation with the respective compounds as described in the respective figure legends and extracellular total thiols were measured using the DTDP method 19. The protocol was adjusted to 96-well plate format. […] Absorbance was measured at 324 nm in a spectrophotometer (PowerWave HT, BioTek, VT, USA). The assay mixture with fresh media was used as a blank.

[3] = system: GSH and CySH in HL60 cells; assay: Intracellular and extracellular thiols by HPLC; format: cell-based, human; conditions: listed as DPDS
Procedure: HPLC was performed as described by Luo et al. 21. Samples and standards were derivatized using monobromobimane (Calbiochem, La Jolla, CA) in sodium N-ethylmorpholine. Aliquots of the derivatized samples were filtered using a 0.22 μm Millipore filter. Glutathione (GSH), cysteine (CySH) and g-glutamylcysteine (7-GC) concentrations were then analyzed using high-performance liquid chromatography (HPLC). Both the total and reduced forms were measured. The HPLC separation, of the thiol-bimane adducts, was achieved on a column (4.5×150 mm) packed with 3-μm octadecyl-silica reversed-phase resin (Supelco, Inc., Bellefonte, PA) followed by fluorescent detection at excitation 394 nm and emission 480 nm (Millipore Co., Milford, MA). The system consisted of a Waters 625 LC pump system, a Waters 470 scanning fluorescence detector, and a Waters 717 Ultra WISP sample processor (Millipore, Milford, MA). Elution solvent A was 7.0% aqueous acetonitrile containing 0.25% acetic acid and perchloric acid; the final pH was adjusted to 3.76 with sodium hydroxide. Elution solvent B was 75% acetonitrile. The flow rate was 1.0 ml/min. The derivatives of GSH, CySH and 7-GC were then quantified based on peak areas and compared with standards. The CV for this method is 2.6%.

HMOX and NQO1 = assay: mRNA expression of NFE2L2 target genes; format: cell-based, human; conditions: early time point
[4] = system: cystathionine gamma lyase; assay: RNA-sequencing; format: cell-based; conditions: RNA-sequencing data
[5] = system: Primary Human hepatocytes
SLC7A11 = SLC7A11 mRNA expression (qRT-PCR); conditions: HL60 and H1299 cells; listed as DPDS
[6] = system: splenocytes comprising normal and leukemic cells; assay: Frequency of normal and leukemic splenocytes by flow cytometry (CD45.1); conditions: 50.0 μM; 67 h
Procedure: Primary mice leukemic cells (CD45.1 background) bearing human MLL-AF9 oncogene were transplanted into healthy secondary mice (CD45.2 background). Following leukemia development in these mice, spleens were collected following euthanasia. Splenocytes, comprising both normal and leukemic cells, were isolated and cultured ex vivo in 24 well plates (1.5×10^6 cells/0.5 ml/well) for 12 h prior to exposing with the indicated compounds for another 67 h. At the end of the exposure, relative frequency of normal (CD45.1 negative) and leukemic (CD45.1 positive) cells were determined using flow cytometry.

U1906E = assay: WST-1 cytotoxicity, U1906E; format: cell-based; conditions: Homo sapiens, 24 h, read-out: Calculated IC50 values
Procedure: as §1

U1906L = assay: WST-1 cytotoxicity, U1906L; format: cell-based; conditions: Homo sapiens, 24 h, read-out: Calculated IC50 values
Procedure: as §1

THP-1 = assay: WST-1 cytotoxicity, THP-1; format: cell-based; conditions: Homo sapiens, THP-1, 24 h, read-out: Calculated IC50 values
Procedure: as §1

Kasumi 6 = assay: WST-1 cytotoxicity, Kasumi 6; format: cell-based; conditions: Homo sapiens, alone, 24 h, read-out: Calculated IC50 values
Procedure: as §1

AML193 = assay: WST-1 cytotoxicity, AML193; format: cell-based; conditions: Homo sapiens, 24 h, read-out: Calculated IC50 values
Procedure: as §1

HepG2 = assay: WST-1 cytotoxicity, HepG2; format: cell-based; conditions: Homo sapiens, HepG2, 24 h, read-out: Calculated IC50 values
Hep3B = assay: WST-1 cytotoxicity, Hep3B; format: cell-based; conditions: Homo sapiens, 24 h, read-out: Calculated IC50 values
Procedure: as §1

HUH7 = assay: WST-1 cytotoxicity, HUH7; format: cell-based; conditions: Homo sapiens, Huh-7, 24 h, read-out: Calculated IC50 values
Procedure: as §1

SHSY5-SY = assay: WST-1 cytotoxicity, SHSY5-SY; format: cell-based; conditions: Homo sapiens, 24 h, read-out: Calculated IC50 values
Procedure: as §1

SNB-19 = assay: WST-1 cytotoxicity, SNB-19; format: cell-based; conditions: Homo sapiens, SNB-19, 24 h, read-out: Calculated IC50 values
Procedure: as §1

8-MGBA = assay: WST-1 cytotoxicity, 8-MGBA; format: cell-based; conditions: Homo sapiens, 8-MG-BA, 24 h, read-out: Calculated IC50 values
Procedure: as §1

LS174T = assay: WST-1 cytotoxicity, LS174T; format: cell-based; conditions: Homo sapiens, 24 h, read-out: Calculated IC50 values
Procedure: as §1

HeLa = assay: WST-1 cytotoxicity, HeLa; format: cell-based; conditions: Homo sapiens, 24 h, read-out: Calculated IC50 values
Procedure: as §1

PANC-1 = assay: WST-1 cytotoxicity, PANC-1; format: cell-based; conditions: Homo sapiens, PANC-1, 24 h, read-out: Calculated IC50 values
Procedure: as §1

A375 = assay: WST-1 cytotoxicity, A375; format: cell-based; conditions: Homo sapiens, A-375, 24 h, read-out: Calculated IC50 values
Procedure: as §1

IGROV1 = assay: WST-1 cytotoxicity, IGROV1; format: cell-based, human; conditions: Homo sapiens, IGROV-1, 24 h, read-out: Calculated IC50 values
Procedure: as §1

OV2008 = assay: WST-1 cytotoxicity, OV2008; format: cell-based; conditions: Homo sapiens, 24 h, read-out: Calculated IC50 values
Procedure: as §1

[7] = Toxicity in black mice (C57BL/6), 3 weeks; format: in vivo; conditions: sodium selenite or selenocystine 3 mg/kg, alone or with diphenyl diselenide 50 and 100 mg/kg
Procedure: Black mice (C57BJ/6) mice were treated perorally every second day with either vehicle (canola oil) or diphenyl diselenide at two different dose levels (50 and 100 mg/kg body weight) for 3 weeks. Final body weight and weight of the major organs were measured at necropsy.
Black mice (C57BJ/6) mice were treated with vehicle (PBS i.p. and canola oil p.o.), sodium selenite (3 mg/kg body weight), selenocystine (3 mg/kg body weight), or in combinations with two different doses of diphenyl diselenide (50 and 100 mg/kg body weight) for 3 weeks. Final body weight and weight of the major organs were measured at necropsy.

[8] = cited from earlier work
[9] = system: Primary peripheral blood mononuclear cells; assay: WST-1 cytotoxicity, primary PBMCs; conditions: Homo sapiens, PBMC, 24 h, read-out: Calculated IC50 values
[10] = system: Primary Human hepatocytes; assay: WST-1 cytotoxicity, primary human hepatocytes; conditions: Hepatocyte, 24 h, read-out: Calculated IC50 values
[11] = at 10.2 mg/m2 intravenously, human

c1ccc([Se][Se]c2ccccc2)cc1 [Diphenyl diselenide, diphenyl diselenide]
IC50 (A549; A549 (Lung), compound alone, 24 h, '>' = dose approximation, read-out: IC50 values): 91.1 µM | IC50 (H661; NCI-H661, H661 (Lung), compound alone, 24 h, '>' = dose approximation, read-out: IC50 values): 47.2 µM | IC50 (H1299; NCI-H1299, H1299 (Lung), compound alone, 24 h, '>' = dose approximation, read-out: IC50 values): 26.2 µM | IC50 (NB4; NB-4, NB4 (Leukemia), compound alone, 24 h, '>' = dose approximation, read-out: IC50 values): 39.5 µM | IC50 (HL60; HL-60, HL60 (Leukemia), compound alone, 24 h, '>' = dose approximation, read-out: IC50 values): 38.4 µM | IC50 (MCF-7; MCF7 (Breast), compound alone, 24 h, '>' = dose approximation, read-out: IC50 values): 42.7 µM | toxicity at the specified dose [1]: non-toxic | selenium uptake from sodium selenite or selenocystine (H1299 cells): dramatically increases selenium uptake | extracellular reduced thiols ([2]; HEK293 ATF4 reporter cells, 5.0 μM): no changes | extracellular reduced thiols ([2]; all the tested cell lines, H1299 and HL60): highly effective | intracellular GSH levels and extracellular CySH levels [3]: increased levels of intracellular GSH; also recorded: increases | expression of HMOX and NQO1 (HMOX and NQO1): significantly induced | expression of cystathionine gamma lyase [4]: increased | toxicity to normal human cells [5]: non-toxic | SLC7A11 expression (SLC7A11): Increased SLC7A11 expression; also recorded: potent inducer | frequency of either normal or leukemic cells [6]: marginal inhibitory effect

O=[Se](O)O [Sodium selenite, sodium selenite]
IC50 (A549; A549, 24 h, read-out: Calculated IC50 values): 2.86 µM | IC50 (H661; NCI-H661, 24 h, read-out: Calculated IC50 values): 53.1 µM | IC50 (H661; NCI-H661, read-out: Calculated IC50 values of sodium selenite): 53.1 µM | IC50 (H1299; NCI-H1299, 24 h, read-out: Calculated IC50 values): 5.25 µM | IC50 (H1299; NCI-H1299, read-out: Calculated IC50 values of sodium selenite): 5.25 µM | IC50 (U1906E): 2.44 µM | IC50 (U1906L): 1.58 µM | IC50 (NB4; NB-4, 24 h, read-out: Calculated IC50 values): 24.6 µM | IC50 (NB4; NB-4, read-out: Calculated IC50 values of sodium selenite): 24.6 µM | IC50 (HL60; HL-60, 24 h, read-out: Calculated IC50 values): 16 µM | IC50 (HL60; HL-60, read-out: Calculated IC50 values of sodium selenite): 16 µM | IC50 (THP-1): 0.79 µM | IC50 (Kasumi 6): 25.7 µM | IC50 (AML193): 6.78 µM | IC50 (HepG2): 7.58 µM | IC50 (Hep3B): 1.65 µM | IC50 (HUH7): 3.53 µM | IC50 (SHSY5-SY): 40.3 µM | IC50 (SNB-19): 5.35 µM | IC50 (8-MGBA): 4.29 µM | IC50 (LS174T): 3.6 µM | IC50 (HeLa): 0.64 µM | IC50 (MCF-7; MCF7, 24 h, read-out: Calculated IC50 values): 8.55 µM | IC50 (MCF-7; MCF7, read-out: Calculated IC50 values of sodium selenite): 8.55 µM | IC50 (PANC-1): 7.87 µM | IC50 (A375): 6.14 µM | IC50 (IGROV1): 5.08 µM | IC50 (OV2008): 3.7 µM | toxic effects (body and organ weight at necropsy) [7]: No demonstrated toxic effects could be observed | dose-limiting toxicity [8, 11]: No dose-limiting toxicity | peak plasma total selenium concentrations [8, 11]: 15.0 to 23.0 µM | plasma concentration (sodium selenite equivalent) that can be reached ([8]; high dose intravenous administration, earlier clinical studies): > 20 µM | Maximum-tolerated dose levels ([8]; intravenously administered, human): 10.2 mg/m2 | human tolerance limit ([8]; intravenously for two weeks, phase I trial NCT01959438): 10 mg sodium selenite/m^2 surface area/day | IC50 [9]: 35 µM | IC50 [10]: 202 µM
